# Tested on: Lox-IMVI melanoma cell line
# Assay: Lox-IMVI anti-proliferative assay (growth inhibition, Cell Titer-Glo)
# Format: cell-based, human
# Conditions: Homo sapiens; IC50 activity level in the cell-based Lox-IMVI anti-proliferative assay; read-out: Activity
# Procedure: Determination of the Growth Inhibitory Effect of Aminopurine Compounds. The Lox-IMVI melanoma cell line (Source: NCI-DCTD, catalog No. 0507283) was maintained and tested in RPMI+10% FBS. The seeding density for the cell line was optimized to ensure assay linearity in 384-well plates.
# Increasing concentrations of Aminopurine Compound (0.5 nM to 10 μM) were spotted in a 10-point serial dilution fashion (3-fold dilution) in duplicate within the plate via an acoustic dispenser (EDC ATS-100) into an empty 384-well plate. The dimethyl sulfoxide (DMSO) concentration was kept constant for a final assay concentration of 0.2% DMSO. Prior to testing, cells were grown and expanded in culture flasks to provide sufficient amounts of starting material. Cells were then diluted to their desired densities and added directly to the compound-spotted 384-well plates. Cells were allowed to grow for 72 hours in 5% CO2 at 37° C. At the time when exposure of cells to compound began (t0), initial cell number was assessed via a viability assay (Cell Titer-Glo) by quantifying the level of luminescence generated by adenosine-5′-triphosphate (ATP) present in viable cells. After 72 hours, cell viability of compound-treated cells was assessed via Cell Titer-Glo Luminescent Cell Viability Assay (Promega Corporation, Madison, Wis.) and read for luminescence.
# All data was normalized and represented as a percentage of the DMSO-treated control cells after 72 h. Results were expressed as a IC50 value, which is the compound concentration required to inhibit 50% of the untreated control cells during the 72 hours of treatment.
# A Four Parameter Logistic Model (Sigmoidal Dose-Response Model) was used to determine the compound's IC50. y=(A+((B−A)/(1+((C/x)^D))))
# wherein: • A=YMin • B=YMax • C=EC50 • D=Hill Slope • IC50 is the compound concentration when Y=50% of DMSO control • Y=Luminescence unit
# All inhibition curves were processed and evaluated using XLFit and Activity Base (IDBS).
row,SMILES,IC50
1,"NC(=O)[C@H]1CC[C@@H](n2c(Nc3c(F)cc(F)cc3F)nc3cnc(NC4COCC4O)nc32)CC1 (stereo partly shown) [Example 178, (1s,4s)-4-(2-(4-hydroxytetrahydrofuran-3-ylamino)-8-(2,4,6-trifluorophenylamino)-9H-purin-9-yl)cyclohexanecarboxamide]",> 1000 nM
2,"C[C@@H](CO)Nc1ncc2nc(Nc3ccc(Cl)cc3Cl)n([C@H]3CC[C@@H](C(N)=O)CC3)c2n1 [Example 170, (1R,4s)-4-(8-(2,4-dichlorophenylamino)-2-((S)-1-hydroxypropan-2-ylamino)-9H-purin-9-yl)cyclohexanecarboxamide]",> 1000 nM
3,"NC(=O)[C@H]1CC[C@@H](n2c(Nc3c(F)cc(Cl)cc3F)nc3cnc(N[C@H]4CCCOC4)nc32)CC1 [Example 203, (1R,4s)-4-(8-(4-chloro-2,6-difluorophenylamino)-2-((S)-tetrahydro-2H-pyran-3-ylamino)-9H-purin-9-yl)cyclohexanecarboxamide]",> 1000 nM
4,"NC(=O)[C@H]1CC[C@@H](n2c(Nc3c(F)cc(Cl)cc3Cl)nc3cnc(N[C@H]4CCC[C@@H]4O)nc32)CC1 [Example 271, (1R,4s)-4-(8-(2,4-dichloro-6-fluorophenylamino)-2-((1S,2S)-2-hydroxycyclopentylamino)-9H-purin-9-yl)cyclohexanecarboxamide]",500 to 1000 nM
5,"NC(=O)[C@H]1CC[C@@H](n2c(Nc3c(Cl)cccc3Cl)nc3cnc(N[C@@H]4CC[C@@H](O)C4)nc32)CC1 [Example 211, (1S,4s)-4-(8-(2,6-dichlorophenylamino)-2-((1R,3R)-3-hydroxycyclopentylamino)-9H-purin-9-yl)cyclohexanecarboxamide]",> 1000 nM
6,"CC[C@H](C)Nc1ncc2nc(Nc3c(F)cc(F)cc3F)n([C@H]3CC[C@@H](C(N)=O)CC3)c2n1 [Example 334, (1R,4s)-4-(2-(sec-butylamino)-8-(2,4,6-trifluorophenylamino)-9H-purin-9-yl)cyclohexanecarboxamide]",500 to 1000 nM
7,"C[C@@H]1CC[C@@H](Nc2ncc3nc(Nc4ccc(Cl)c(F)c4F)n([C@H]4CC[C@@H](C(N)=O)CC4)c3n2)C[C@H]1O [Example 357, (1S,4s)-4-(8-(4-chloro-2,3-difluorophenylamino)-2-((1R,3R,4R)-3-hydroxy-4-methylcyclohexylamino)-9H-purin-9-yl)cyclohexanecarboxamide]",> 1000 nM
8,"Cc1cc(Nc2nc3cnc(NC4CCOCC4)nc3n2[C@H]2CC[C@@H](C(N)=O)CC2)c(F)cc1Cl [Example 71, (1s,4s)-4-(8-(4-chloro-2-fluoro-5-methylphenylamino)-2-(tetrahydro-2H-pyran-4-ylamino)-9H-purin-9-yl)cyclohexanecarboxamide]",> 1000 nM
9,"NC(=O)[C@H]1CC[C@@H](n2c(Nc3c(F)cc(Cl)cc3F)nc3cnc(N[C@H]4C[C@@H](O)C4)nc32)CC1 [Example 322, (1s,4s)-4-(8-(4-chloro-2,6-difluorophenylamino)-2-((1s,3s)-3-hydroxycyclobutylamino)-9H-purin-9-yl)cyclohexanecarboxamide]",> 1000 nM
10,"NC(=O)[C@H]1CC[C@@H](n2c(Nc3c(F)cc(Cl)cc3F)nc3cnc(NC4CC(F)(F)C4)nc32)CC1 [Example 229, (1s,4s)-4-(8-(4-chloro-2,6-difluorophenylamino)-2-(3,3-difluorocyclobutylamino)-9H-purin-9-yl)cyclohexanecarboxamide]",> 1000 nM
11,"NC(=O)[C@H]1CC[C@@H](n2c(Nc3c(Cl)cc(F)cc3Cl)nc3cnc(NC4CC5(COC5)C4)nc32)CC1 [Example 193, (1s,4s)-4-(2-(2-oxaspiro[3.3]heptan-6-ylamino)-8-(2,6-dichloro-4-fluorophenylamino)-9H-purin-9-yl)cyclohexanecarboxamide]",> 1000 nM

# Same assay, conditions: Homo sapiens; Lox-IMVI anti-proliferative assay, IC50 activity level; read-out: Activity
row,SMILES,IC50
1,"C[C@]1(C(N)=O)CC[C@H](n2c(Nc3c(Cl)cc(F)cc3Cl)nc3cnc(NC4CCCC4)nc32)CC1 [Example 493, (1r,4r)-4-(2-(cyclopentylamino)-8-(2,6-dichloro-4-fluorophenylamino)-9H-purin-9-yl)-1-methylcyclohexanecarboxamide]",> 1000 nM
2,"C[C@]1(O)CCC[C@@H](Nc2ncc3nc(Nc4c(F)cc(F)cc4Cl)n([C@H]4CC[C@@H](C(N)=O)CC4)c3n2)C1 [Example 425, (1S,4s)-4-(8-(2-chloro-4,6-difluorophenylamino)-2-((1R,3S)-3-hydroxy-3-methylcyclohexylamino)-9H-purin-9-yl)cyclohexanecarboxamide]",> 1000 nM
3,"NC(=O)[C@H]1CC[C@@H](n2c(Nc3c(Cl)cc(Cl)cc3Cl)nc3cnc(NCC(F)(F)CO)nc32)CC1 [Example 450, (1s,4s)-4-(2-(2,2-difluoro-3-hydroxypropylamino)-8-(2,4,6-trichlorophenylamino)-9H-purin-9-yl)cyclohexanecarboxamide]",> 1000 nM
4,"N#Cc1cc(F)c(Nc2nc3cnc(N[C@@H]4CCOC4)nc3n2[C@H]2CC[C@@H](C(N)=O)CC2)c(Cl)c1 [Example 520, (1S,4s)-4-(8-(2-chloro-4-cyano-6-fluorophenylamino)-2-((R)-tetrahydrofuran-3-ylamino)-9H-purin-9-yl)cyclohexanecarboxamide]",250 to 500 nM
5,"C[C@H]1COCC[C@H]1Nc1ncc2nc(Nc3c(Cl)cc(C#N)cc3Cl)n([C@H]3CC[C@@H](C(N)=O)CC3)c2n1 [Example 497, (1S,4s)-4-(8-(2,6-dichloro-4-cyanophenylamino)-2-((3R,4R)-3-methyltetrahydro-2H-pyran-4-ylamino)-9H-purin-9-yl)cyclohexanecarboxamide]",< 250 nM

# Same assay, conditions: Homo sapiens; Lox-IMVI melanoma cell line, anti-proliferative assay; read-out: Activity (IC50 activity level)
row,SMILES,IC50
1,"N#Cc1cc(F)c(Nc2nc3cnc(N[C@@H]4CCC(O)C4)nc3n2[C@H]2CC[C@@H](C(N)=O)CC2)c(Cl)c1 (stereo partly drawn) [Example 682, (1S,4s)-4-(8-(2-chloro-4-cyano-6-fluorophenylamino)-2-((1R,3R)-3-hydroxycyclopentylamino)-9H-purin-9-yl)cyclohexanecarboxamide]",< 250 nM
2,"C[C@]1(C(N)=O)CC[C@@H](n2c(Nc3c(F)cc(F)cc3Cl)nc3cnc(N[C@@H]4CCOC[C@H]4F)nc32)CC1 [Example 715, (1S,4s)-4-(8-(2-chloro-4,6-difluorophenylamino)-2-((3S,4R)-3-fluorotetrahydro-2H-pyran-4-ylamino)-9H-purin-9-yl)-1-methylcyclohexanecarboxamide]",< 250 nM
3,"C[C@]1(C(N)=O)CC[C@@H](n2c(Nc3c(Cl)cc(C#N)cc3Cl)nc3cnc(N[C@H]4CCOC[C@H]4F)nc32)CC1 [Example 761, (1R,4s)-4-(8-(2,6-dichloro-4-cyanophenylamino)-2-((3S,4S)-3-fluorotetrahydro-2H-pyran-4-ylamino)-9H-purin-9-yl)-1-methylcyclohexanecarboxamide]",< 250 nM
4,"C[C@]1(C(N)=O)CC[C@@H](n2c(Nc3c(Cl)cc(Cl)cc3Cl)nc3cnc(N[C@H]4CCC[C@H](O)C4)nc32)CC1 [Example 611, (1R,4s)-4-(2-((1S,3S)-3-hydroxycyclohexylamino)-8-(2,4,6-trichlorophenylamino)-9H-purin-9-yl)-1-methylcyclohexanecarboxamide]",< 250 nM
5,"CS(=O)(=O)C1CC(Nc2ncc3nc(Nc4c(Cl)cc(C(F)(F)F)cc4Cl)n([C@H]4CC[C@@H](C(N)=O)CC4)c3n2)C1 (stereo partly shown) [Example 735, (1s,4s)-4-(8-(2,6-dichloro-4-(trifluoromethyl)phenylamino)-2-(3-(methylsulfonyl)cyclobutylamino)-9H-purin-9-yl)cyclohexanecarboxamide]",> 1000 nM
6,"Cc1ccc(S(=O)(=O)N2CCC[C@@H](Nc3ncc4nc(Nc5c(F)cc(F)cc5F)n([C@H]5CC[C@@H](C(N)=O)CC5)c4n3)C2)cc1 [Example 791, (1S,4s)-4-(2-((R)-1-tosylpiperidin-3-ylamino)-8-(2,4,6-trifluorophenylamino)-9H-purin-9-yl)cyclohexanecarboxamide]",> 1000 nM
7,"C[C@@H]1COCC[C@@H]1Nc1ncc2nc(Nc3c(Cl)cc(C#N)cc3Cl)n([C@H]3CC[C@@](C)(C(N)=O)CC3)c2n1 [Example 763, (1S,4s)-4-(8-(2,6-dichloro-4-cyanophenylamino)-2-((3S,4R)-3-methyltetrahydro-2H-pyran-4-ylamino)-9H-purin-9-yl)-1-methylcyclohexanecarboxamide]",< 250 nM
8,"NC(=O)[C@H]1CC[C@@H](n2c(Nc3c(Cl)cc(C(F)(F)F)cc3Cl)nc3cnc(N[C@@H]4CCCN(Cc5ccccc5)C4)nc32)CC1 [Example 754, (1S,4s)-4-(2-((R)-1-benzylpiperidin-3-ylamino)-8-(2,6-dichloro-4-(trifluoromethyl)phenylamino)-9H-purin-9-yl)cyclohexanecarboxamide]",> 1000 nM
9,"C[C@]1(C(N)=O)CC[C@@H](n2c(Nc3c(F)cc(F)cc3F)nc3cnc(NC4CCC4)nc32)CC1 [Example 607, (1s,4s)-4-(2-(cyclobutylamino)-8-(2,4,6-trifluorophenylamino)-9H-purin-9-yl)-1-methylcyclohexanecarboxamide]",< 250 nM

# From patent US11590139B2, “Substituted aminopurine compounds, compositions thereof, and methods of treatment therewith” (Signal Pharmaceuticals, LLC, priority 2014, dated 2023)
